Assay results published in ChEMBL document CHEMBL1201862, “PubChem BioAssay data set” (2004).
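96-well plates; 48 h exposure; 5 concentrations. Endpoints by linear interpolation between flanking doses. Not reached: highest tested concentration assigned. GI50: concentration for 50% inhibition of growth.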 Activity calls are given as the source filed them. No stated cut-off is given here; in the data, active = GI50 up to about 1.1 µM and inactive = higher.

Tests used:
Assay in all cases: growth of human tumour cells (NCI), 48 h
786-0 = system: 786-0
CCRF-CEM = system: CCRF-CEM
DU-145 = system: DU-145
HCC 2998 = system: HCC 2998
HCT-116 = system: HCT-116
HOP-62 = system: HOP-62
Hs-578T = system: Hs-578T
KM12 = system: KM12
MDA-MB-231 = system: MDA-MB-231
MDA-MB-435 = system: MDA-MB-435
NCI-H226 = system: NCI-H226
NCI-H460 = system: NCI-H460
OVCAR-3 = system: OVCAR-3
PC-3 = system: PC-3
SF-539 = system: SF-539
SK-MEL-2 = system: SK-MEL-2
SK-MEL-5 = system: SK-MEL-5
SN12C = system: SN12C
SR = system: SR
RPMI-8226 = system: RPMI-8226

Compound	GI50 (786-0)	GI50 (CCRF-CEM)	GI50 (DU-145)	GI50 (HCC 2998)	GI50 (HCT-116)	GI50 (HOP-62)	GI50 (Hs-578T)	GI50 (KM12)	GI50 (MDA-MB-231)	GI50 (MDA-MB-435)	GI50 (NCI-H226)	GI50 (NCI-H460)	GI50 (OVCAR-3)	GI50 (PC-3)	GI50 (SF-539)	GI50 (SK-MEL-2)	GI50 (SK-MEL-5)	GI50 (SN12C)	GI50 (SR)	GI50 (RPMI-8226)
O=C(NCCNCCO)N/N=C/c1ccc(Cl)cc1	> 100 µM (inactive)	> 100 µM (inactive)	> 100 µM (inactive)	> 100 µM (inactive)	> 100 µM (inactive)	> 100 µM (inactive)	> 100 µM (inactive)	> 100 µM (inactive)	> 100 µM (inactive)	> 100 µM (inactive)	> 100 µM (inactive)	> 100 µM (inactive)	> 100 µM (inactive)	> 100 µM (inactive)	> 100 µM (inactive)	> 100 µM (inactive)	> 100 µM (inactive)	> 100 µM (inactive)	> 100 µM (inactive)	–
CC1(C)C2CCC(=O)C1CC2 (stereo not given)	> 100 µM (inactive)	> 100 µM (inactive)	> 100 µM (inactive)	> 100 µM (inactive)	> 100 µM (inactive)	> 100 µM (inactive)	> 100 µM (inactive)	> 100 µM (inactive)	> 100 µM (inactive)	> 100 µM (inactive)	> 100 µM (inactive)	> 100 µM (inactive)	> 100 µM (inactive)	> 100 µM (inactive)	> 100 µM (inactive)	> 100 µM (inactive)	> 100 µM (inactive)	> 100 µM (inactive)	–	> 100 µM (inactive)
Cc1ccc(N2C=Nn3c(nc4sc5c(c4c3=O)CCCC5)C2)cc1	35.7 µM (inactive)	45.2 µM (inactive)	69.3 µM (inactive)	39.9 µM (inactive)	41.2 µM (inactive)	21.2 µM (inactive)	28.1 µM (inactive)	62.4 µM (inactive)	43.6 µM (inactive)	99.3 µM (inactive)	55 µM (inactive)	50.1 µM (inactive)	49.4 µM (inactive)	49.4 µM (inactive)	–	> 100 µM (inactive)	29.8 µM (inactive)	63.8 µM (inactive)	–	32.1 µM (inactive)
C=CCCC(=O)C(=[N+]=[N-])C(=O)CCC(=O)c1ccccc1	> 10 µM (inactive)	–	> 10 µM (inactive)	–	–	> 10 µM (inactive)	> 10 µM (inactive)	–	> 10 µM (inactive)	> 10 µM (inactive)	> 10 µM (inactive)	> 10 µM (inactive)	> 10 µM (inactive)	> 10 µM (inactive)	> 10 µM (inactive)	> 10 µM (inactive)	> 10 µM (inactive)	> 10 µM (inactive)	> 10 µM (inactive)	> 10 µM (inactive)
Cn1c(=O)cc(Nc2ccc(N)cc2)[nH]c1=O	> 100 µM (inactive)	> 100 µM (inactive)	–	> 100 µM (inactive)	> 100 µM (inactive)	> 100 µM (inactive)	> 100 µM (inactive)	> 100 µM (inactive)	> 100 µM (inactive)	> 100 µM (inactive)	> 100 µM (inactive)	> 100 µM (inactive)	> 100 µM (inactive)	> 100 µM (inactive)	> 100 µM (inactive)	> 100 µM (inactive)	> 100 µM (inactive)	> 100 µM (inactive)	> 100 µM (inactive)	> 100 µM (inactive)
Clc1sc(Cl)c2c1[C@@H](Cl)C[C@@H]2Br	> 100 µM (inactive)	33.3 µM (inactive)	> 100 µM (inactive)	> 100 µM (inactive)	> 100 µM (inactive)	> 100 µM (inactive)	65.8 µM (inactive)	90.6 µM (inactive)	> 100 µM (inactive)	40.6 µM (inactive)	–	71.1 µM (inactive)	–	> 100 µM (inactive)	–	> 100 µM (inactive)	> 100 µM (inactive)	> 100 µM (inactive)	18.8 µM (inactive)	–
CN(CCNC(=O)c1cn(C)c2c1ccc1ccccc12)CCNC(=O)c1cn(C)c2c1ccc1ccccc12	2.04 µM (inactive)	2.44 µM (inactive)	2.1 µM (inactive)	0.71 µM (active)	1.99 µM (inactive)	1.85 µM (inactive)	2.18 µM (inactive)	1.79 µM (inactive)	1.47 µM (inactive)	2.2 µM (inactive)	5.55 µM (inactive)	1.85 µM (inactive)	2.26 µM (inactive)	2.42 µM (inactive)	1.76 µM (inactive)	2.2 µM (inactive)	2.6 µM (inactive)	2.64 µM (inactive)	–	2.59 µM (inactive)
COc1ccc(/C=C(/c2ccc(OC)cc2)c2c(Cl)cc(Cl)c(/C(=C\c3ccc(OC)cc3)c3ccc(OC)cc3)c2/N=N/c2ccccc2)cc1	> 100 µM (inactive)	50.1 µM (inactive)	> 100 µM (inactive)	> 100 µM (inactive)	> 100 µM (inactive)	> 100 µM (inactive)	> 100 µM (inactive)	> 100 µM (inactive)	> 100 µM (inactive)	> 100 µM (inactive)	–	> 100 µM (inactive)	> 100 µM (inactive)	> 100 µM (inactive)	34.4 µM (inactive)	> 100 µM (inactive)	> 100 µM (inactive)	> 100 µM (inactive)	–	> 100 µM (inactive)
COC(C(O)CO)C(O)C(O)C(=O)NNc1ccccc1 (stereo not given)	> 100 µM (inactive)	42.7 µM (inactive)	> 100 µM (inactive)	> 100 µM (inactive)	> 100 µM (inactive)	> 100 µM (inactive)	> 100 µM (inactive)	23.6 µM (inactive)	> 100 µM (inactive)	40.3 µM (inactive)	–	9.46 µM (inactive)	> 100 µM (inactive)	> 100 µM (inactive)	22.4 µM (inactive)	38.9 µM (inactive)	37.2 µM (inactive)	> 100 µM (inactive)	> 100 µM (inactive)	47.5 µM (inactive)
NC1=NCC(CN2CCOCC2)O1 (stereo not given)	> 100 µM (inactive)	> 100 µM (inactive)	> 100 µM (inactive)	> 100 µM (inactive)	> 100 µM (inactive)	> 100 µM (inactive)	> 100 µM (inactive)	> 100 µM (inactive)	> 100 µM (inactive)	> 100 µM (inactive)	–	> 100 µM (inactive)	> 100 µM (inactive)	> 100 µM (inactive)	> 100 µM (inactive)	> 100 µM (inactive)	> 100 µM (inactive)	> 100 µM (inactive)	> 100 µM (inactive)	> 100 µM (inactive)
COc1ccc(-c2c(/C=N/OCC(=O)O)c3sc4ccccc4n3c2/C=N/OCC(=O)O)cc1	> 50 µM (inactive)	> 50 µM (inactive)	> 50 µM (inactive)	> 50 µM (inactive)	> 50 µM (inactive)	> 50 µM (inactive)	> 50 µM (inactive)	> 50 µM (inactive)	> 50 µM (inactive)	> 50 µM (inactive)	–	> 50 µM (inactive)	> 50 µM (inactive)	> 50 µM (inactive)	–	> 50 µM (inactive)	> 50 µM (inactive)	> 50 µM (inactive)	–	–
Cc1cc(C)nc(NS(=O)(=O)c2ccc(Nc3c4ccccc4nc4c(C(=O)NCCO)cccc34)cc2)n1	> 10 µM (inactive)	10.3 µM (inactive)	40.8 µM (inactive)	10.4 µM (inactive)	–	9.31 µM (inactive)	53.1 µM (inactive)	10.9 µM (inactive)	12.4 µM (inactive)	16.6 µM (inactive)	–	14.1 µM (inactive)	19.8 µM (inactive)	23.2 µM (inactive)	–	11.8 µM (inactive)	17.1 µM (inactive)	15 µM (inactive)	10.7 µM (inactive)	10.3 µM (inactive)
COC(=O)Nc1nc2cc(S(=O)(=O)N3CCOCC3)ccc2[nH]1	> 100 µM (inactive)	52.8 µM (inactive)	> 100 µM (inactive)	–	> 100 µM (inactive)	91.8 µM (inactive)	> 100 µM (inactive)	65.5 µM (inactive)	> 100 µM (inactive)	26.4 µM (inactive)	> 100 µM (inactive)	> 100 µM (inactive)	> 100 µM (inactive)	> 100 µM (inactive)	12.4 µM (inactive)	> 100 µM (inactive)	> 100 µM (inactive)	> 100 µM (inactive)	51.1 µM (inactive)	30.3 µM (inactive)
CN1CC[C@]2(c3cccc(O)c3)CC(=O)/C(=C/c3ccc(Cl)c(Cl)c3)[C@@H]1C2	1.05 µM (active)	0.337 µM (active)	1.65 µM (inactive)	1.41 µM (inactive)	1.13 µM (inactive)	–	3.05 µM (inactive)	0.575 µM (active)	1.15 µM (inactive)	0.337 µM (active)	2.34 µM (inactive)	1.28 µM (inactive)	–	0.324 µM (active)	2.5 µM (inactive)	–	1.55 µM (inactive)	1.04 µM (active)	0.281 µM (active)	0.262 µM (active)
Clc1n[nH]c2ccccc12	> 100 µM (inactive)	> 100 µM (inactive)	> 100 µM (inactive)	> 100 µM (inactive)	> 100 µM (inactive)	> 100 µM (inactive)	> 100 µM (inactive)	> 100 µM (inactive)	> 100 µM (inactive)	> 100 µM (inactive)	71 µM (inactive)	> 100 µM (inactive)	> 100 µM (inactive)	> 100 µM (inactive)	> 100 µM (inactive)	> 100 µM (inactive)	> 100 µM (inactive)	> 100 µM (inactive)	–	> 100 µM (inactive)
